The values below are quoted from earlier work in US20240016816A1, “COMBINATION THERAPY” (priority 2017, published 2024).

Data set [1] relates to hair loss. As to conditions: clinical trials.
In data set [2] the test system is eyelashes. Conditions: patients using ophthalmic prostaglandins.

In the case of `CC(C)(C)NC(=O)[C@H]1CC[C@H]2[C@@H]3CC[C@H]4NC(=O)C=C[C@]4(C)[C@H]3CC[C@]12C` [finasteride], in data set [1], the “efficacy, monotherapy comparison minoxidil vs finasteride” value is reported as “the more efficacious treatment option”.
Regarding `CC(C)OC(=O)CCC/C=C\C[C@@H]1[C@@H](/C=C/[C@@H](O)COc2cccc(C(F)(F)F)c2)[C@H](O)C[C@@H]1O` [travoprost], the effect on eyelashes result in data set [2] is “increase in diameter, density and length of eyelashes”.
On to `CC(C)OC(=O)CCC/C=C\C[C@@H]1[C@@H](CC[C@@H](O)CCc2ccccc2)[C@H](O)C[C@@H]1O` [latanoprost], for which, in data set [2], the effect on eyelashes result is “increase in diameter, density and length of eyelashes”.
`CCNC(=O)CCC/C=C\C[C@@H]1[C@@H](/C=C/[C@@H](O)CCc2ccccc2)[C@H](O)C[C@@H]1O` [Bimatoprost, bimatoprost]: the effect on eyelashes entry in data set [2] is recorded as “significantly increase eyelash length”.
